Measurements from patent US7122551B2, “Metalloproteinase inhibitor compounds” (AstraZeneca AB, priority 2000, dated 2006).

Legend:
[1] = biological activity of separated enantiomers / diastereomers (test not specified); settings: enantiomers compared by order of elution; test and target not stated

| melting point | Compound | Biological activity of separated enantiomers [1] |
| --- | --- | --- |
|  | O=CN(O)[C@@H](CCc1ncccn1)CS(=O)(=O)N1CCN(c2ccc(Cl)cn2)CC1 [Example 6 2nd enantiomer eluted, N-[(1S)-1-({[4-(5-chloropyridin-2-yl)piperazino]sulfonyl}methyl)-3-(pyrimidin-2-yl)propyl]-N-hydroxyformamide] | Biological activity lies in the compound eluted second from the column |
| 154 to 155 °C | O=CN(O)C(CCc1ncc(F)cn1)CS(=O)(=O)N1CCN(c2ccc(Cl)cn2)CC1 (stereo not drawn) [Example 2, N-[1-([4-(5-chloropyridin-2-yl)piperazino]sulfonylmethyl)-3-(5-fluoropyrimidin-2-yl)propyl]-N-hydroxyformamide] |  |
| 124.5 to 126.5 °C | O=CN(O)[C@@H](CCCc1ncccn1)CS(=O)(=O)N1CCN(c2ccc(Cl)cn2)CC1 [Example 4, N-[(1S)-1-({[4-(5-chloropyridin-2-yl)piperazino]sulfonyl}methyl)-4-(pyrimidin-2-yl)butyl]-N-hydroxyformamide] |  |
